Measurements taken from patent US5547976A, “Further indole derivatives with antiviral activity” (Burroughs Wellcome Co., priority 1992, dated 1996).

Key:
[1] = tested on: Human cytomegalovirus (HCMV), CMV strain AD 169; assay: CMV assay (plaque reduction assay, MRC5 cells); format: cell-based; details: Human betaherpesvirus 5, HCMV strain AD 169
Procedure: Human cytomegalovirus (HCMV) was assayed in monolayers of either MRC5 cells (human embryonic lung) in multiwell trays. The strandard CMV strain AD 169 was used. Activity of compounds is determined in the plaque reduction assay, in which a cell monolayer is infected with a suspension of HCMV, and then overlaid with nutrient […] in the form of a gel to ensure that there is no spread of virus throughout the culture. A range of concentrations of compound of known molarity was incorporated in the nutrient agarose overlay. Plaque numbers at each concentration of drug are expressed as percentage of the control and a dose-response curve is drawn.

[2] = Cell toxicity (cell growth inhibition assay, MTT uptake); format: cell-based; details: monkey, 50% inhibition of cell viability at 96 hours, Vero cells, read-out: Cytoxicity CClD50
Procedure: Cell toxicity is assessed in cell growth inhibition assay. Subconfluent cultures of Vero cells grown on 96-well microtiter dishes are exposed to different dilutions of drug, and cell viability determined daily on replicate cultures using uptake of a tetrazolium dye (MTT). The concentration required for 50% inhibition of cell viability at 96 hours is termed CCID50.

SMILES	IC50 [1]	CC50 at 96 h [2]
O=C1c2c(c3c4ccccc4[nH]c3c3[nH]c4ccccc4c23)C(=O)N1Cc1cc(C(F)(F)F)cc(C(F)(F)F)c1 [12,13-Dihydro-6-(3,5-di-trifluoromethylphenylmethyl)-5H-indolo [2,3a]pyrrolo[3,4c]carbazole-5,7(6H)-dione]	5.7 µM	> 125 µM
O=C1c2c(c3c4ccccc4[nH]c3c3[nH]c4ccccc4c23)C(=O)N1Cc1cccc(C(F)(F)F)c1 [12,13-Dihydro-6-(3-trifluoromethylphenylmethyl)-5H-indolo[2,3a]pyrrolo[3,4c]-carbazole-5,7-(6H)-dione]	1.2 µM	> 500 µM
O=C1NC(=O)c2c1c1c3cc(Cl)ccc3[nH]c1c1[nH]c3ccc(Cl)cc3c21 [12,13-Dihydro-3,9-dichloro-5H-indolo[2,3-a]pyrrolo[3,4-c]carbazole-5,7(6H)-dione]	0.16 µM	> 125 µM
